US20160120889A1, “LIFESPAN EXTENDING AGENT” (priority 2011, published 2016)

Key:
[1] = tested on: wild-type N2 strain of the nematode Caenorhabditis elegans; experiment: Nematode survival rate and average lifespan, wild-type N2; format: in vivo
Description: The wild-type N2 strain of the nematode Caenorhabditis elegans was used.
(§1) Complete S liquid medium (Sulston, J. E. and Brenner, S. (1974) Genetics 77, 95-104) was used for the culturing of the nematode. D-psicose or D-allose was added to the medium in 0.25% (14 mM) and 0.5% (28 mM). The Escherichia coli (E. coli) OP50 strain was added in 30 mg (wet weight/mL) to feed the worms. To exclude the effects of the germ cells on lifespan, the cell division inhibitor 2′-deoxy-5-fluorouridine (40 μM) was added.
(§2) Young worms, 4 days of age, were used for the measurements of survival rate and average lifespan. The prepared liquid medium was dispensed onto ten plastic petri dishes having a diameter of 3.5 cm (2 mL each). Ten nematodes were transferred to each petri dish (a total of 100 individuals), and cultured at 20° C. The samples were inoculated into a new medium every day until day 3, and every 2 to 3 days thereafter. Observations were made at the time of the inoculation, and the number of survived individuals was recorded.
(§3) The wild-type N2 strain of the nematode Caenorhabditis elegans was cultured, and lifespan was measured in the same manner as in Example 1, except that the D-psicose was used in 0.5% (w/v). […] The average lifespan with 0.5% D-psicose was 27 days, longer than the 23-day lifespan of the D-psicose-free control.

[2] = tested on: oxygen sensitive mutant mev-1 of the nematode Caenorhabditis elegans; experiment: Nematode average lifespan, oxygen sensitive mutant mev-1; format: in vivo; conditions: mev-1, 0.25%, Example 3; control 12 days
Description: as §1, §2
as §3, with “oxygen sensitive mutant mev-1” for “wild-type N2 strain”, “0.25%.” for “0.5% (w/v).”, “0.25%” for “0.5%”, “16” for “27”, “12-day” for “23-day”

[3] = tested on: SOD gene (mitochondria Mn-SOD, cytosol Cu/Zn-SOD) in N2; experiment: SOD mRNA gene expression in N2 (real time quantitative RT-PCR); format: in vivo, Caenorhabditis elegans; conditions: N2, 0.5% (w/v), day 6, FIG. 5
Description: (§4) The wild-type N2 and the oxygen sensitive mutant mev-1 of the nematode Caenorhabditis elegans were cultured in liquid medium (10 mL) containing 0.5% (w/v) D-psicose. The medium was dispensed onto plastic petri dishes having a diameter of 10 cm, and approximately 1,000 nematodes were placed in each petri dish. The nematodes were cultured in the same manner as in Example 1 except for these differences, and the samples were collected on day 6 from the start of the culturing. FIG. 5 represents the results of the comparison of SOD mRNA gene expression levels. For comparison, the RNA gene levels of mitochondria Mn-SOD and cytosol Cu/Zn-SOD were measured.

[4] = tested on: SOD gene (Mn-SOD sod-3, Cu/Zn-SOD) in mev-1; experiment: SOD mRNA gene expression in mev-1 (real time quantitative RT-PCR); format: in vivo, Caenorhabditis elegans
Description: as §4

[5] = tested on: SOD activity in N2; experiment: SOD activity in lysate of N2; format: in vivo, Caenorhabditis elegans; conditions: N2, 0.5% (w/v)
Description: as §4
(§5) The wild-type N2 and the oxygen sensitive mutant mev-1 of the nematode Caenorhabditis elegans were grown in the same manner as in Example 4. The samples were collected on day 7 from the start of the culturing, and the SOD activity in the lysate was measured.

[6] = tested on: SOD activity in mev-1; experiment: SOD activity in lysate of mev-1; format: in vivo, Caenorhabditis elegans; conditions: mev-1, 0.5% (w/v)
Description: as §4, §5

[7] = tested on: catalase genes ctl-1, ctl-2 in N2; experiment: Catalase mRNA gene expression in N2; format: in vivo, Caenorhabditis elegans; conditions: N2, 0.5% (w/v), day 6
Description: as §4
The wild-type N2 and the oxygen sensitive mutant mev-1 of the nematode Caenorhabditis elegans were cultured in the same manner as in Example 4. The samples were collected on day 6 from the start of the culturing, and the catalase mRNA gene expression levels were compared. For comparison, the RNA gene levels of cytosol ctl-1 and peroxisome CTL-2 were measured.

[8] = tested on: catalase activity in N2; experiment: Catalase activity in lysate of N2; format: in vivo, Caenorhabditis elegans; conditions: N2, 0.5% (w/v), day 7, FIG. 8
Description: as §4
The wild-type N2 of the nematode Caenorhabditis elegans was grown in the same manner as in Example 4. The samples were collected on day 7 from the start of the culturing, and the catalase activity in the lysate was measured.

Compound | average lifespan ([1]; N2, 0.25% (14 mM) in medium, 20° C., Example 1, control 15.8 days) [days] | increase in average lifespan vs control ([1]; N2, 0.25% in medium, Example 1) [%] | lifespan extension ([1]; N2, 0.5% (w/v)) [%] | average lifespan ([1]; N2, 0.5% (w/v), Example 2, control 23 days) [days] | average lifespan [2] [days] | SOD mRNA gene expression level [3] | SOD mRNA gene expression level ([4]; mev-1, 0.5% (w/v), day 6, FIG. 5) | increase in expression level of Mn-SOD (sod-3) gene ([4]; mev-1, real time quantitative RT-PCR, 0.5% (w/v), day 6) [fold] | increase in SOD enzyme activity ([5]; day 7) [fold] | SOD activity in the lysate ([5]; day 7, FIG. 6) | increase in SOD enzyme activity ([6]; day 7) [fold] | SOD activity in the lysate ([6]; day 7, FIG. 6) | increase in gene expression levels of cytoplasm-localized catalase and peroxisome catalases (ctl-1, ctl-2) [7] [fold] | catalase activity in the lysate [8] | average lifespan ([1]; N2, 0.5% (28 mM) in medium, 20° C., Example 1, control 12.5 days) [days] | increase in average lifespan vs control ([1]; N2, 0.5% in medium, Example 1) [%]
O=C(CO)[C@H](O)[C@H](O)[C@H](O)CO [D-psicose] | 18.9 | 20 | 17 | 27 | 16 | increased expression | increased expression | 1.7 | 1.5 | increased SOD activity | 1.3 | increased SOD activity | 1.5 | increased catalase activity |  | 
O=C[C@H](O)[C@H](O)[C@H](O)[C@H](O)CO [D-allose] |  |  |  |  |  |  |  |  |  |  |  |  |  |  | 15.8 | 26
